The target of assay [1] is Rhesus PDE2A3 (Macaca mulatta, UniProt B3VTJ2). The experiment in a line: PDE2 fluorescence polarization (IMAP FP) inhibition assay, rhesus enzyme. Type of assay: biochemical, rhesus macaque. A digest of the protocol: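 Rhesus PDE2A3 came from lysate of transiently transfected AD293 cells, diluted to give 20% substrate conversion. Substrate was 50 nM FAM-cAMP with 1 uM cGMP activator in Tris pH 7.2/MgCl2 buffer, run 60 min at room temperature over 10-point 3-fold dilutions in 1% DMSO. Read-out was IMAP fluorescence polarization (mP) after ≥1 h binding.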
On the technique in general: Polarisation of emitted light reports the rotation of a fluorescent probe.

In assay [2] the target is human PDE2A1 (Homo sapiens (Human), UniProt O00408). The experiment in a line: IMAP FP PDE selectivity panel, human PDE2A1. It is filed as biochemical. In short, it runs like this: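 GST-tagged human PDE2A1 expressed in insect cells, run at room temperature for 60 min with 50 nM FAM-cAMP containing 1000 nM cGMP, pH 7.2 Tris/MgCl2 buffer. IMAP fluorescence polarization read after binding step.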

Setting [3] is: Rhesus PDE2, Lab A, read-out: Rhesus PDE2 Ki (nM) - Lab A.
The mark [4] stands for this setting: Rhesus PDE2, Lab B, read-out: Rhesus PDE2 Ki (nM) - Lab B.
[5] abbreviates: Human PDE2, Lab B, read-out: Human PDE2 Ki (nM) - Lab B.
The mark [6] stands for this setting: Human PDE2, Lab A, read-out: Human PDE2 Ki (nM) - Lab A.

Data on 26 compounds can be found in US9815796B2 (Merck Sharp & Dohme Corp., priority 2013, dated 2017).

Like-named read-outs stand apart in the source and are kept apart here.

Rhesus PDE2A3, sequence (B3VTJ2 1-941): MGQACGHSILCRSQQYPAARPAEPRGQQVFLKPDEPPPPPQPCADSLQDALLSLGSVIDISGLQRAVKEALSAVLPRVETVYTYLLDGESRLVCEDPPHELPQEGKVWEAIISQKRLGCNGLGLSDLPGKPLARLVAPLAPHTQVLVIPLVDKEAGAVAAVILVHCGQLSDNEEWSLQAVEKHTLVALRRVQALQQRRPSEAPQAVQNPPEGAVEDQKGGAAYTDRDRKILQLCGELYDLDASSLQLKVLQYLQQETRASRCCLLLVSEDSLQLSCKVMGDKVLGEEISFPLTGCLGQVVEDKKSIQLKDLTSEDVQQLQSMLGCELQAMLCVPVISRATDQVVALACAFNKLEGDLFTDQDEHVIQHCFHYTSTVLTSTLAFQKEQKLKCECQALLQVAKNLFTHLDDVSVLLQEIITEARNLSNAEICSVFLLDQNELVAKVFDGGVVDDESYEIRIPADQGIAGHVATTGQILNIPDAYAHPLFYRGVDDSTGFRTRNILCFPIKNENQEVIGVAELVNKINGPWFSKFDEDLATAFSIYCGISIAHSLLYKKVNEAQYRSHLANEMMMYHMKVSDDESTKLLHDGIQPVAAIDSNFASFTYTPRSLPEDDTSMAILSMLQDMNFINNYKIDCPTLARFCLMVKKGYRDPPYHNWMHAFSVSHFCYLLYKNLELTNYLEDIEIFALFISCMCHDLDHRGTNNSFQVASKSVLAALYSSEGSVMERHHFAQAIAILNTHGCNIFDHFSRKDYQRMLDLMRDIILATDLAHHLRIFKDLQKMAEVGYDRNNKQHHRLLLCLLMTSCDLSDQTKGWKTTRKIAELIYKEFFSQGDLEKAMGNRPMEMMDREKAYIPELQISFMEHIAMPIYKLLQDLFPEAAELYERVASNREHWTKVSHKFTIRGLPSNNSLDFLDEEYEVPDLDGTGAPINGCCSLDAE
human PDE2A1, sequence (O00408 other isoform, or with tags, fused parts or gaps): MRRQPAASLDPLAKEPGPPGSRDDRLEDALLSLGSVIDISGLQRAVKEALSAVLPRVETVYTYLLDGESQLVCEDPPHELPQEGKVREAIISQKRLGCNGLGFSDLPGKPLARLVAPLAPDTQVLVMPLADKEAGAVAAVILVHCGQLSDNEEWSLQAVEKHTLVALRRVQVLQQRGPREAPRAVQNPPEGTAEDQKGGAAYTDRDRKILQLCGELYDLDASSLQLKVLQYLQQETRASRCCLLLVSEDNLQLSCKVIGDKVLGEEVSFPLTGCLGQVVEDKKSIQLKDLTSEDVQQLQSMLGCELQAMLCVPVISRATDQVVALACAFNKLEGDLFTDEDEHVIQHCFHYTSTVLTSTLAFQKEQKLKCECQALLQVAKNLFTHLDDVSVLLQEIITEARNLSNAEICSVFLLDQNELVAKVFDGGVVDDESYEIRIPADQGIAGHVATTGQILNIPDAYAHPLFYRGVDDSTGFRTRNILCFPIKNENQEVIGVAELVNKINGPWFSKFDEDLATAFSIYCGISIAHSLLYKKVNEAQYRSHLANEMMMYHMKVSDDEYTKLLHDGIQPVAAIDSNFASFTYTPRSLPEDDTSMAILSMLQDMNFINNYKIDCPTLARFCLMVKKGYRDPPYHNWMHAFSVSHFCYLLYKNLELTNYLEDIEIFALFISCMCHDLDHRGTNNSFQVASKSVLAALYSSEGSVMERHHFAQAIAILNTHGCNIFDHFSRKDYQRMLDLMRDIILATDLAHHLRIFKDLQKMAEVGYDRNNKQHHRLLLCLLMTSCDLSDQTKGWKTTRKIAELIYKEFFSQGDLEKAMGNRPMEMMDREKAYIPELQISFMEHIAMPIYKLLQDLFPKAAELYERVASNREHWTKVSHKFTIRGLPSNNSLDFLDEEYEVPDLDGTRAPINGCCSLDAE

For orientation: Ki means the equilibrium dissociation constant of an inhibitor or competing ligand from its target. `CC[C@@H](NC(=O)c1cc(=O)[nH]c(-c2ncccn2)n1)c1ccc(C(F)(F)F)c(F)c1` [Example 264, N-{(1R)-1-[3-fluoro-4-(trifluoromethyl)phenyl]propyl}-6-oxo-1,6-dihydro-2,2′-bipyrimidine-4-carboxamide]: the figures for the Ki in assay [1] (setting [3]), in assay [1] (setting [4]) and in assay [2] (setting [5]) were 4.6 nM, 7.9 nM and 7.7 nM, respectively.
As to `COc1ccc(Cc2nc(C(=O)N[C@@H](c3ccc(OC(F)(F)F)cc3)C(C)(C)C)cc(=O)[nH]2)cc1F` [Example 509, N-{(1R)-2,2-dimethyl-1-[4-(trifluoromethoxy)phenyl]propyl}-2-(3-fluoro-4-methoxybenzyl)-6-oxo-1,6-dihydropyrimidine-4-carboxamide], the Ki in assay [1] (setting [4]) was 0.88 nM; in assay [2] (setting [5]), 0.99 nM.
Regarding `O=C(N[C@@H](c1ccc(OC(F)(F)F)cc1)C1CC1)c1cc(=O)[nH]c(-c2ncccn2)n1` [Example 92, N-{(R)-cyclopropyl[4-(trifluoromethoxy)phenyl]methyl}-6-oxo-1,6-dihydro-2,2′-bipyrimidine-4-carboxamide], the figures for the Ki in assay [1] (setting [3]) and in assay [2] (setting [6]) were 91 nM and 21 nM, respectively.
`CC[C@@H](NC(=O)c1cc(=O)[nH]c(-c2ccccc2)n1)c1ccc(OC(F)(F)F)c(F)c1` [Example 172]: the Ki in assay [1] (setting [3]) was determined as 2.7 nM; in assay [2] (setting [6]), 1.9 nM.
For `CCc1nc(C(=O)N[C@H](C)c2ccc(C(F)(F)F)cc2)cc(=O)[nH]1` [Example 134, 2-ethyl-6-oxo-N-{(1R)-1-[4-(trifluoromethyl)phenyl]ethyl}-1,6-dihydropyrimidine-4-carboxamide], the Ki in assay [1] (setting [3]) was 54 nM; in assay [2] (setting [6]) it was 43 nM; in assay [2] (setting [5]), 38 nM.
Turning to `COc1ccc(C(C)(C)c2nc(C(=O)N[C@@H](c3ccc(SC(F)(F)F)c(F)c3)C3CC3)cc(=O)[nH]2)cc1` [Example 497, N-[(R)-cyclopropyl{3-fluoro-4-[(trifluoromethyl)sulfanyl]phenyl}methyl]-2-[1-(4-methoxyphenyl)-1-methylethyl]-6-oxo-1,6-dihydropyrimidine-4-carboxamide], the Ki was 80 nM in assay [1] (setting [4]) and 60 nM in assay [2] (setting [5]).
Turning to `CC(C)(NC(=O)c1cc(=O)[nH]c(-c2ccccc2)n1)c1ccc(SC(F)(F)F)c(F)c1` [Example 361, N-(1-{3-fluoro-4-[(trifluoromethyl)sulfanyl]phenyl}-1-methylethyl)-6-oxo-2-phenyl-1,6-dihydropyrimidine-4-carboxamide], the Ki in assay [1] (setting [3]) is ~78 nM; in assay [1] (setting [4]), 99 nM; in assay [2] (setting [5]), 81 nM.
`Cc1nc(C(=O)NC(C)(c2ccc(S(F)(F)(F)(F)F)cc2)C(C)C)cc(=O)[nH]1` (single isomer, unassigned) [Example 663, (R)- or (S)-N-{1,2-dimethyl-1-[4-(pentafluoro-λ^6-sulfanyl)phenyl]propyl}-2-methyl-6-oxo-1,6-dihydropyrimidine-4-carhoxamide]: the figures for the Ki in assay [1] (setting [4]) and in assay [2] (setting [5]) were 30 nM and 34 nM, respectively.
In the case of `Cc1nc(C(=O)NC2(c3ccc(OC(F)(F)F)c(F)c3)CC2)cc(=O)[nH]1` [Example 67, N-{1-[3-fluoro-4-(trifluoromethoxy)phenyl]cyclopropyl}-2-methyl-6-oxo-1,6-dihydropyrimidine-4-carboxamide], the Ki was 16 nM in assay [1] (setting [3]), 19 nM in assay [1] (setting [4]), ~9.6 nM in assay [2] (setting [6]) and 12 nM in assay [2] (setting [5]).
Take `COc1cc(C(C)NC(=O)c2cc(=O)[nH]c(-c3ccccc3)n2)ccc1C(F)(F)F` (stereo not shown) [Example 155]: the Ki in assay [1] (setting [3]) amounted to 119 nM; in assay [2] (setting [6]), 143 nM.
As for `O=C(N[C@@H](c1ccc(C(F)(F)F)cc1)C1CC1)c1cc(=O)[nH]c(C2CC2)n1` [Example 213, 2-cyclopropyl-N-{(R)-cyclopropyl[4-(trifluoromethyl)phenyl]methyl}-6-oxo-1,6-dihydropyrimidine-4-carboxamide], the Ki in assay [1] (setting [3]) came out at 6.1 nM; in assay [2] (setting [6]), 3.3 nM.
As to `CC(C)[C@@H](NC(=O)c1cc(=O)[nH]c(-c2ncccn2)n1)c1ccc(OC(F)(F)F)cc1` [Example 75, N-{(1R)-2-methyl-1-[4-(trifluoromethoxy)phenyl]propyl}-6-oxo-1,6-dihydro-2,2′-bipyrimidine-4-carboxamide], the Ki is 5.1 nM in assay [1] (setting [3]) and 3 nM in assay [2] (setting [6]).
Turning to `Cc1nc(C(=O)N[C@H](C)c2ccc(CC(F)(F)F)cc2)cc(=O)[nH]1` [Example 45, 2-methyl-6-oxo-N-{(1R)-1-[4-(2,2,2-trifluoroethyl)phenyl]ethyl}-1,6-dihydropyrimidine-4-carboxamide], the Ki in assay [1] (setting [3]) was 52 nM; in assay [2] (setting [6]) it was 35 nM.
`Cc1nc(C(=O)N[C@@H](c2ccc(C3CC3)c(F)c2)C2CC2)cc(=O)[nH]1` [Example 426, N-[(R)-cyclopropyl(4-cyclopropyl-3-fluorophenyl)methyl]-2-methyl-6-oxo-1,6-dihydropyrimidine-4-carboxamide]: the Ki in assay [1] (setting [4]) is 9.1 nM; in assay [2] (setting [5]) it was 9.5 nM.
On to `Cc1nc(C(=O)N[C@H](C)c2ccc(OC(F)(F)F)cc2)cc(=O)[nH]1` [Example 9, 2-methyl-6-oxo-N-{(1R)-1-[4-(trifluoromethoxy)phenyl]ethyl}-1,6-dihydropyrimidine-4-carboxamide], for which the Ki in assay [1] (setting [3]) was found to be 21 nM; in assay [2] (setting [6]), 16 nM.
As for `COc1ccc(Cc2nc(C(=O)N[C@@H](c3ccc(C(F)(F)F)cc3)C(C)C)cc(=O)[nH]2)cc1F` [Example 516, 2-(3-fluoro-4-methoxybenzyl)-N-{(1R)-2-methyl-1-[4-(trifluoromethyl)phenyl]propyl}-6-oxo-1,6-dihydropyrimidine-4-carboxamide], the figures for the inhibition constant Ki in assay [1] (setting [4]) and in assay [2] (setting [5]) were 1.6 nM and 1.5 nM, respectively.
For the compound `COCc1nc(C(=O)N[C@@H](c2ccc(SC(F)(F)F)cc2)C(C)C)cc(=O)[nH]1` [Example 120, 2-(methoxymethyl)-N-[(1R)-2-methyl-1-{4-[(trifluoromethyl)sulfanyl]phenyl}propyl]-6-oxo-1,6-dihydropyrimidine-4-carboxamide], the Ki in assay [1] (setting [3]) was found to be 8.7 nM; in assay [2] (setting [6]), 4.2 nM.
As for `CC1(C(NC(=O)c2cc(=O)[nH]c(-c3ccccc3)n2)c2ccc(SC(F)(F)F)c(F)c2)CC1` (single isomer, unassigned) [Example 707, (R)- or (S)-N-((3-fluoro-4-((trifluoromethyl)thio)phenyl)(1-methylcyclopropyl)methyl)-6-oxo-2-phenyl-1,6-dihydropyrimidine-4-carboxamide], the Ki in assay [1] (setting [4]) amounted to 8.3 nM; in assay [2] (setting [5]), 7.7 nM.
Regarding `C[C@@H](NC(=O)c1cc(=O)[nH]c(C2CC2)n1)c1ccc(SC(F)(F)F)cc1` [Example 15, (R)-2-cyclopropyl-6-oxo-N-(1-(4-((trifluoromethyl)thio)phenyl)ethyl)-1,6-dihydro pyrimidine-4-carboxamide], the Ki in assay [1] (setting [3]) came to 4.4 nM; in assay [2] (setting [6]), 3.5 nM.
Regarding `COc1ccc(Cc2nc(C(=O)N[C@@H](c3ccc(SC(F)(F)F)c(F)c3)C(C)C)cc(=O)[nH]2)cc1F` [Example 512, 2-(3-fluoro-4-methoxybenzyl)-N-[(1R)-1-{3-fluoro-4-[(trifluoromethyl)sulfanyl]phenyl}-2-methylpropyl]-6-oxo-1,6-dihydropyrimidine-4-carboxamide], the Ki in assay [1] (setting [4]) was 1.5 nM; in assay [2] (setting [5]) it was 1.6 nM.
In the same order, the values of `COc1ccc(Cc2nc(C(=O)N[C@@H](c3ccc(OC(F)(F)F)cc3)C3CC3)cc(=O)[nH]2)cc1` [Example 480, N-{(R)-cyclopropyl[4-(trifluoromethoxy)phenyl]methyl}-2-(4-methoxybenzyl)-6-oxo-1,6-dihydropyrimidine-4-carboxamide] are 1.9 nM and 1.9 nM.
Turning to `C[C@@H](NC(=O)c1cc(=O)[nH]c(C2CC2)n1)c1ccc(OC(F)(F)F)cc1` [Example 10, 2-cyclopropyl-6-oxo-N-{(1R)-1-[4-(trifluoromethoxy)phenyl]ethyl}-1,6-dihydropyrimidine-4-carboxamide], the Ki was 9.9 nM in assay [1] (setting [3]) and 6 nM in assay [2] (setting [6]).
`O=C(NC1(c2ccc(OC(F)(F)F)c(F)c2)CC1)c1cc(=O)[nH]c(-c2ccccc2)n1` [Example 157, N-{1-[3-fluoro-4-(trifluoromethoxy)phenyl]cyclopropyl}-6-oxo-2-phenyl-1,6-dihydropyrimidine-4-carboxamide]: the results for the Ki in assay [1] (setting [3]) and in assay [2] (setting [6]) were 4.8 nM and 3.1 nM, respectively.
As for `COCc1nc(C(=O)N[C@H](C)c2ccc(SC(F)(F)F)cc2)cc(=O)[nH]1` [Example 123, 2-(methoxymethyl)-6-oxo-N-[(1R)-1-{4-[(trifluoromethyl)sulfanyl]phenyl}ethyl]-1,6-dihydropyrimidine-4-carboxamide], the Ki in assay [1] (setting [3]) was 39 nM; in assay [1] (setting [4]), 31 nM; in assay [2] (setting [6]) it was ~8.2 nM.
Take `CC(C)(C)[C@@H](NC(=O)c1cc(=O)[nH]c(C2CC2)n1)c1ccc(C(F)(F)F)c(F)c1` [Example 438, 2-cyclopropyl-N-{(1R)-1-[3-fluoro-4-(trifluoromethyl)phenyl]-2,2-dimethylpropyl}-6-oxo-1,6-dihydropyrimidine-4-carboxamide]: the Ki in assay [1] (setting [4]) amounted to 1.5 nM; in assay [2] (setting [5]), 1.3 nM.
Turning to `Cc1nc(C(=O)N[C@@H](c2ccc(OC(F)(F)F)cc2)C(C)C)cc(=O)[nH]1` [Example 32, 2-methyl-N-{(1R)-2-methyl-1-[4-(trifluoromethoxy)phenyl]propyl}-6-oxo-1,6-dihydropyrimidine-4-carboxamide], the Ki is 11 nM in assay [1] (setting [3]) and 5.1 nM in assay [2] (setting [6]).
